Measurements reported in patent US12378241B2, “Pyridine derivative as FGFR and VEGFR dual inhibitors” (CGeneTech (Suzhou,China) CO., Ltd., priority 2019, dated 2025).
pIC50: −log10 of the molar value. Structures can show the parent of a compound that is named as a salt. Where two headings read alike, the source gives them in different places. Blank lines part the entries; values can stand above or below the molecule they belong to.

Key:
[1] = target: human FGFR2 (Homo sapiens (Human), UniProt P21802); test: 33P isotope-labeled kinase activity test (Reaction Biology Corp), FGFR2; assay type: biochemical; details: ATP 5 μM
Chain of human FGFR2 (P21802 22-821): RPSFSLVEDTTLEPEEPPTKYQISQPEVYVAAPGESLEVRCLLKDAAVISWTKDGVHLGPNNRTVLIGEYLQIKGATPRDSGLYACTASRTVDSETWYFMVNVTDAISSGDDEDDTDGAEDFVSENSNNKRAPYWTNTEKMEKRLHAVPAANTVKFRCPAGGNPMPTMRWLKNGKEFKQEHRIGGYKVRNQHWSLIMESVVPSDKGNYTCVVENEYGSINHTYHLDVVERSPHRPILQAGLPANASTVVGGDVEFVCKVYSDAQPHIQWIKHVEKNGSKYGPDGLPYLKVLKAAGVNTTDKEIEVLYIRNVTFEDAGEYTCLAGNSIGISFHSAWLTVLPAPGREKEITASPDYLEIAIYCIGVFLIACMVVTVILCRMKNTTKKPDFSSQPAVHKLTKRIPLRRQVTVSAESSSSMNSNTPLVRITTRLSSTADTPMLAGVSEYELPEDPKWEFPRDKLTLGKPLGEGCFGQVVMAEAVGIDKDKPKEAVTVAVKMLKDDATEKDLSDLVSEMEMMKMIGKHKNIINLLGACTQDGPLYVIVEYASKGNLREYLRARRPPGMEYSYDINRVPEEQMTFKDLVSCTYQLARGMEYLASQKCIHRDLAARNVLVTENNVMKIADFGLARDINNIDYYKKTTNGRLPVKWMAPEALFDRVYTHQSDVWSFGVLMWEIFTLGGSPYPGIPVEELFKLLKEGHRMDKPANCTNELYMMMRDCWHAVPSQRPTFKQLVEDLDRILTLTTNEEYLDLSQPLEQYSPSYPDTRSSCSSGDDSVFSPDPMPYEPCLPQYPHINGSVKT
Method: (§1) The IC50 value was determined using ^33P isotope-labeled kinase activity test (Reaction Biology Corp) to evaluate the inhibitory ability of the compounds to be tested on human FGFR1, FGFR2 and VEGFR2.
(§2) Buffer conditions: 20 mM Hepes (pH 7.5), 10 mM MgCl2, 1 mM EGTA, 0.02% Brij35, 0.02 mg/mL BSA, 0.1 mM Na3VO4, 2 mM DTT, 1% DMSO.
(§3) Test steps: At room temperature, the compounds to be tested were dissolved in DMSO to prepare a 10 mM solution for use. The substrate was dissolved in the newly-prepared buffer, and the kinase to be tested was added thereto and mixed well. The DMSO solution in which the compounds to be tested were dissolved was added to the above-mentioned homogeneous reaction mixture using acoustic technology (Echo 550). […] After incubating for 15 minutes, ^33P-ATP (activity: 0.01 μCi/μL, with corresponding concentration listed in Table 4) was added to the reaction mixture to start the reaction. […] The kinase activity data was expressed by comparing the kinase activity of the groups containing the compounds to be tested with that of the blank group (containing only DMSO).

[2] = target: human VEGFR2 (Homo sapiens (Human), UniProt P35968); test: 33P isotope-labeled kinase activity test (Reaction Biology Corp), VEGFR2; assay type: biochemical; details: ATP 10 μM
Chain of human VEGFR2 (P35968 20-1356): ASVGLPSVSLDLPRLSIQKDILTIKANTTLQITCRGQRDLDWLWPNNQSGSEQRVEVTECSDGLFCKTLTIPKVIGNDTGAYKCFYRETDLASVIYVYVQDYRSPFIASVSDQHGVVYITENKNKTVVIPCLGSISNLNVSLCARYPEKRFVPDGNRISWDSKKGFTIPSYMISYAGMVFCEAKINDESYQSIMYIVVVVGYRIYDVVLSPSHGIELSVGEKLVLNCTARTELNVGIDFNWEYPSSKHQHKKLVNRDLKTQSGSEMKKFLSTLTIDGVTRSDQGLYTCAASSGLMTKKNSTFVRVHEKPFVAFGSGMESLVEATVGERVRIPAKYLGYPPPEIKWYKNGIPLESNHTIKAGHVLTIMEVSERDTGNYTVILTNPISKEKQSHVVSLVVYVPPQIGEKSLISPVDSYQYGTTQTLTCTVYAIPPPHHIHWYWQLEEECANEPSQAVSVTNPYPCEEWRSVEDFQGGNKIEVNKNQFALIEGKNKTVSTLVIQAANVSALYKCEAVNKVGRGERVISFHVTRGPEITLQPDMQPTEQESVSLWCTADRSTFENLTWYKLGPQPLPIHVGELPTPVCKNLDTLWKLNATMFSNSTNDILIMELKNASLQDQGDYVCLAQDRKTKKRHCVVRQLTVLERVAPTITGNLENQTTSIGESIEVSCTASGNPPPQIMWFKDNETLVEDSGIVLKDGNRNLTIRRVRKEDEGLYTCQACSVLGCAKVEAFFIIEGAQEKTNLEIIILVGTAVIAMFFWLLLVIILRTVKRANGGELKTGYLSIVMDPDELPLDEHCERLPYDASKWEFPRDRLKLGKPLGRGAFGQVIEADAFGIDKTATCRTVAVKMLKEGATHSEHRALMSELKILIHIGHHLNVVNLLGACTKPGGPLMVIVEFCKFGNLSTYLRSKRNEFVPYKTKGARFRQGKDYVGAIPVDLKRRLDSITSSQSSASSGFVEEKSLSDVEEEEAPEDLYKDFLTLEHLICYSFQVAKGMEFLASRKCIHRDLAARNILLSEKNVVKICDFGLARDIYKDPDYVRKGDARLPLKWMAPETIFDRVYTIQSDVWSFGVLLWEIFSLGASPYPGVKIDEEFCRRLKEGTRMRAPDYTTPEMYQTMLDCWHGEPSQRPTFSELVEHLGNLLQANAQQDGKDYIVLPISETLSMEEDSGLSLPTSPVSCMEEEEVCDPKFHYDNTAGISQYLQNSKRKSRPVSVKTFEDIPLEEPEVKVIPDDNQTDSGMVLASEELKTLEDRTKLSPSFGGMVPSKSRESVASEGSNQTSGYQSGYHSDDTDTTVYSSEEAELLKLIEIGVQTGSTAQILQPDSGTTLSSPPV
Method: as §1, §2, §3

[3] = target: human FGFR1 (Homo sapiens (Human), UniProt P11362); test: 33P isotope-labeled kinase activity test (Reaction Biology Corp), FGFR1; assay type: biochemical; details: ATP 5 μM
Chain of human FGFR1 (P11362 22-822): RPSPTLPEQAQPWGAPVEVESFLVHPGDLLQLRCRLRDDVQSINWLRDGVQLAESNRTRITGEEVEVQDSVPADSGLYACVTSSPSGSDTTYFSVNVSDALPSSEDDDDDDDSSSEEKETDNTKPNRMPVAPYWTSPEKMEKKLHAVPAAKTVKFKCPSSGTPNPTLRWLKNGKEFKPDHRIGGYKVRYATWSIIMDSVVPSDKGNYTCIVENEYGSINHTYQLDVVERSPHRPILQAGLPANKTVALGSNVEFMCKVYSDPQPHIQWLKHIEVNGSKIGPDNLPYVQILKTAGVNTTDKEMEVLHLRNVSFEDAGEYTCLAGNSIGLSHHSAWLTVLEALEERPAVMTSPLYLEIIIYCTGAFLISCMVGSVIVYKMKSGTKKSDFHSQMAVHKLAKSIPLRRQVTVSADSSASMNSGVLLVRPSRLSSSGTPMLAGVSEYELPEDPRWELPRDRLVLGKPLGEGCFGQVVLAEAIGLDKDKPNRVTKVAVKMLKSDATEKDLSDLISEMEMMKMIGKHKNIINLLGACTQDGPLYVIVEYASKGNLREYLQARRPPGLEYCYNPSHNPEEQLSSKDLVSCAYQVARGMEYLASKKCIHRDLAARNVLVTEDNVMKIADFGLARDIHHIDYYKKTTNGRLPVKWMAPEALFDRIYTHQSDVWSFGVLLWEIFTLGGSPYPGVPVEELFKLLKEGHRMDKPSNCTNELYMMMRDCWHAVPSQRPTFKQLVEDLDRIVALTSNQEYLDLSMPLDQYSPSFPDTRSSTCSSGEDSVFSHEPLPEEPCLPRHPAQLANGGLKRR
Method: as §1, §2, §3

[4] = Evaluation of the pharmacokinetics in female Balb/c mice (IV and PO); assay type: in vivo; details: for Tlast / AUC(0-inf) / AUC(0-t) / clearance / half-life / MRT last / Vd / bioavailability / Tmax / C0 / Cmax: female Balb/c mice; for AUC(0-inf) / AUC(0-t) / clearance / half-life / MRT last / Vd / bioavailability / Tmax / C0 / Cmax: mouse, plasma; for MRT last: read-out: MRT0-last; for Vd: read-out: Vdss; for bioavailability: read-out: F (bioavailability)
Method: […] […] About 30 μL blood samples were collected from the jugular vein at 0.0833, 0.25, 0.5, 1.0, 2.0, 4.0, 8.0, 24 h after administration and from the tail vein at 0.25, 0.5, 1.0, 2.0, 4.0, 8.0, 24 h after administration, and the blood samples were put in an anticoagulation tube containing EDTA-K2, the plasma was separated by centrifugation. The LC-MS/MS method was used to determine the blood drug concentration, the WinNonlin™ Version 6.3 (Pharsight, Mountain View, CA) pharmacokinetic software was used to calculate the relevant pharmacokinetic parameters by the non-compartmental model linear logarithmic ladder method.

[5] = test system: human gastric cancer SNU-16; test: Anti-tumor activity in mouse subcutaneous xenograft tumor model of human gastric cancer SNU-16; assay type: in vivo, nude mice; details: PO 10/20/40 mg/kg QD (20 mg/kg from day 8, 40 mg/kg from day 17)
Method: To study the anti-tumor effect of the compounds of the present disclosure in a mouse subcutaneous xenograft tumor model of human gastric cancer SNU-16.
Preparation of tumor tissues: SNU-16 cells were routinely cultured in an RPMI-1640 culture medium containing 10% fetal bovine serum under the conditions of 5% CO2, 37° C. and saturated humidity. According to cell growth, the cells were passaged or refilled 1 to 2 times a week with a passage ratio of 1:3 to 1:4.
SNU-16 cells at the logarithmic growth phase were collected, counted and then resuspended in a 50% serum-free RPMI-1640 culture medium and 50% Matrigel, and cell concentration was adjusted to 4×10^7 cells/mL; the cells were placed in an ice box, and the cell suspension was suctioned with a 1 mL syringe, and subcutaneously injected into the anterior right axillary of nude mice, each animal was inoculated with 200 μL (8×10^6 cells/mouse) to establish a SNU-16 xenograft model. The animal status was observed regularly, and the tumor diameter was measured with an electronic vernier caliper. […]
3) The tumor diameter was measured twice a week to calculate the tumor volume, and the animal body weight was weighed and recorded. […]
The anti-tumor efficacy of the compounds was evaluated by TGI (%) or relative tumor proliferation rate T/C (%). […] The relative tumor volume (RTV) was calculated according to the results of the tumor measurement. […]

SMILES: Cn1cc(-c2ccc3c(c2)ncn3-c2cc(NS(C)(=O)=O)cc(-c3ccc(F)cc3F)c2)cn1 [Trifluoroacetate of compound B, reference compound]
pIC50 [1]: 7.65
pIC50 [2]: 7.93

SMILES: Cc1cc(F)ccc1-c1cc(-c2cnc3cc(-c4cnn(C)c4)ccn23)cc(NS(=O)(=O)C2CC2)n1 [Trifluoroacetate salt of compound 2]
pIC50 [1]: 7.34
pIC50 [2]: 7.17

SMILES: Cn1cc(-c2ccn3c(-c4cc(NC5CCOCC5)nc(-c5ccc(F)cc5F)c4)cnc3c2)cn1 [Compound 10]
pIC50 [1]: 7.77

SMILES: CCOC(=O)Nc1cc(-c2cnc3cc(-c4cnn(C)c4)ccn23)cc(-c2ccc(F)cc2C)n1 [Trifluoroacetate salt of compound 4]
pIC50 [1]: 7.34
pIC50 [2]: 7.61

SMILES: CCCS(=O)(=O)Nc1cc(-c2cnc3cc(-c4cnn(C)c4)ccn23)cc(-c2ccc(F)cc2F)n1 [Trifluoroacetate salt of compound 8]
pIC50 [1]: 8.14
pIC50 [2]: 7.83

SMILES: Cn1cc(-c2ccc3c(c2)ncn3-c2cc(NS(=O)(=O)C3CC3)cc(-c3ccc(F)cc3F)c2)cn1 [Trifluoroacetate of compound A, reference compound]
pIC50 [3]: 7.65
Tlast ([4]; IV 0.2 mg/kg): 4.00 h
Tlast ([4]; PO 1 mg/kg): 8.00 h
AUC(0-inf) ([4]; IV 0.2 mg/kg): 0.717 µM·h
AUC(0-t) ([4]; IV 0.2 mg/kg): 0.663 µM·h
clearance ([4]; IV 0.2 mg/kg): 9.2 mL/min/kg
half-life ([4]; IV 0.2 mg/kg): 1.08 h
MRT last ([4]; IV 0.2 mg/kg): 1.21 h
Vd ([4]; IV 0.2 mg/kg): 0.85 L/kg
bioavailability ([4]; PO 1 mg/kg vs IV 0.2 mg/kg): 40.3%
AUC(0-inf) ([4]; PO 1 mg/kg): 1.44 µM·h
AUC(0-t) ([4]; PO 1 mg/kg): 1.41 µM·h
Tmax ([4]; PO 1 mg/kg): 1 h
half-life ([4]; PO 1 mg/kg): 1.4 h
MRT last ([4]; PO 1 mg/kg): 2.76 h
C0 ([4]; IV 0.2 mg/kg): 563 nM
Cmax ([4]; PO 1 mg/kg): 469 nM

SMILES: Cn1cc(-c2ccn3c(-c4cc(NS(C)(=O)=O)cc(-c5ccc(F)cc5F)n4)cnc3c2)cn1 [Formate of compound C, reference compound]
pIC50 [2]: 5.25
pIC50 [3]: 6.14

Continued, in another order:

pIC50 [1]: 8.54
pIC50 [2]: 8.42
pIC50 [3]: 8.34
Tlast ([4]; IV 2 mg/kg): 8.00 h
AUC of intravenous drug exposure compared with the trifluoroacetate of control compound A ([4]; IV, mice): doubled
Tlast ([4]; PO 10 mg/kg): 8.00 h
oral absorption drug exposure compared with the trifluoroacetate of control compound A ([4]; PO, mice): nearly doubled
AUC(0-inf) ([4]; IV 2 mg/kg): 13.7 µM·h
AUC(0-t) ([4]; IV 2 mg/kg): 13.3 µM·h
clearance ([4]; IV 2 mg/kg): 4.82 mL/min/kg
half-life ([4]; IV 2 mg/kg): 1.6 h
MRT last ([4]; IV 2 mg/kg): 2.07 h
Vd ([4]; IV 2 mg/kg): 0.667 L/kg
bioavailability ([4]; PO 10 mg/kg vs IV 2 mg/kg): 39.4%
AUC(0-inf) ([4]; PO 10 mg/kg): 26.9 µM·h
AUC(0-t) ([4]; PO 10 mg/kg): 23.6 µM·h
Tmax ([4]; PO 10 mg/kg): 1 h
half-life ([4]; PO 10 mg/kg): 2.5 h
MRT last ([4]; PO 10 mg/kg): 3.12 h
C0 ([4]; IV 2 mg/kg): 7530 nM
Cmax ([4]; PO 10 mg/kg): 5300 nM
SMILES: Cn1cc(-c2ccn3c(-c4cc(NS(=O)(=O)C5CC5)nc(-c5ccc(F)cc5F)c4)cnc3c2)cn1 [Trifluoroacetate salt of compound 1]
plasma clearance rate compared with the trifluoroacetate of control compound A ([4]; IV, mice): nearly decreased the plasma clearance rate by 1 time

pIC50 [1]: 8.31
pIC50 [2]: 8.43
SMILES: Cn1cc(-c2ccn3c(-c4cc(NCC(C)(C)O)nc(-c5ccc(F)cc5F)c4)cnc3c2)cn1 [Compound 9]

pIC50 [1]: 8.49
pIC50 [2]: 8.70
SMILES: CCOC(=O)Nc1cc(-c2cnc3cc(-c4cnn(C)c4)ccn23)cc(-c2ccc(F)cc2F)n1 [Trifluoroacetate salt of compound 3]

pIC50 [1]: 8.64
pIC50 [2]: 8.12
SMILES: Cn1cc(-c2ccn3c(-c4cc(NCC5COC(C)(C)O5)nc(-c5ccc(F)cc5F)c4)cnc3c2)cn1 (stereo not drawn) [Compound 11]

pIC50 [1]: 8.49
pIC50 [2]: 8.53
Tlast ([4]; IV 0.2 mg/kg): 4.00 h
Tlast ([4]; PO 1 mg/kg): 8.00 h
AUC(0-inf) ([4]; IV 0.2 mg/kg): 0.871 µM·h
AUC(0-t) ([4]; IV 0.2 mg/kg): 0.81 µM·h
clearance ([4]; IV 0.2 mg/kg): 7.96 mL/min/kg
half-life ([4]; IV 0.2 mg/kg): 0.968 h
MRT last ([4]; IV 0.2 mg/kg): 1.08 h
Vd ([4]; IV 0.2 mg/kg): 0.661 L/kg
bioavailability ([4]; PO 1 mg/kg vs IV 0.2 mg/kg): 59.3%
AUC(0-inf) ([4]; PO 1 mg/kg): 2.58 µM·h
AUC(0-t) ([4]; PO 1 mg/kg): 2.53 µM·h
Tmax ([4]; PO 1 mg/kg): 1 h
half-life ([4]; PO 1 mg/kg): 1.33 h
MRT last ([4]; PO 1 mg/kg): 2.35 h
C0 ([4]; IV 0.2 mg/kg): 735 nM
Cmax ([4]; PO 1 mg/kg): 973 nM
SMILES: Cn1cc(-c2ccn3c(-c4cc(NS(C)(=O)=O)nc(-c5ccc(F)cc5F)c4)cnc3c2)cn1 [Trifluoroacetate salt of compound 7]
T/C (%) (relative tumor proliferation rate) D25 [5]: 31%
TGI (%) (tumor growth inhibition rate) D25 [5]: 69%

pIC50 [1]: 8.13
pIC50 [2]: 8.09
SMILES: CCS(=O)(=O)Nc1cc(-c2cnc3cc(-c4cnn(C)c4)ccn23)cc(-c2ccc(F)cc2F)n1 [Trifluoroacetate salt of compound 6]

pIC50 [1]: 7.71
pIC50 [2]: 8.03
SMILES: CCOC(=O)Nc1cc(-c2cnc3cc(-c4cnn(C)c4C)ccn23)cc(-c2ccc(F)cc2F)n1 [Trifluoroacetate salt of compound 12]

pIC50 [2]: 7.95
SMILES: Cc1c(-c2ccn3c(-c4cc(NS(C)(=O)=O)nc(-c5ccc(F)cc5F)c4)cnc3c2)cnn1C [Trifluoroacetate salt of compound 13]
